According to patent publication US8754071B2 (priority 2011, dated 2014):
pIC50: −log10 of the molar value. Like-named read-outs stand apart in the source and are kept apart here.

Target: T1, c-kit (Homo sapiens, UniProt P10721)
T1 construct: human Mo7e cells which endogenously express c-kit; endogenous in cells; host or cells: human Mo7e cells (promegakaryocytic leukemia line), stimulated with human recombinant SCF
Test: Mo7e cell proliferation assay (SCF dependent proliferation)
Assay type: cell-based
Details: read-out: c-kit (Mo7e)
Method: Mo7e Cell Proliferation Assay The compounds of Table 1 and Table 2 were tested for inhibition of SCF dependent proliferation using human Mo7e cells which endogenously express c-kit in a 384 well format. […] After 48 hours of incubation at 37° C., cell viability was measured by adding 25 uL of CellTiter Glo (Promega) to the cells and the luminescence was measured by a […] camera (Molecular Devices). […] The IC50 value is given as that concentration of the test compound in question that provoke a response halfway between the baseline and maximum responses.

[1] = Table 1, human Mo7e cells stimulated with SCF, 48 hours, CellTiter Glo, 1% FBS
[2] = Table 2, human Mo7e cells stimulated with SCF, 48 hours, CellTiter Glo, 1% FBS
[3] = Table 2, values marked *: 20% FBS instead of 1% FBS

T1 sequence (P10721 26-976): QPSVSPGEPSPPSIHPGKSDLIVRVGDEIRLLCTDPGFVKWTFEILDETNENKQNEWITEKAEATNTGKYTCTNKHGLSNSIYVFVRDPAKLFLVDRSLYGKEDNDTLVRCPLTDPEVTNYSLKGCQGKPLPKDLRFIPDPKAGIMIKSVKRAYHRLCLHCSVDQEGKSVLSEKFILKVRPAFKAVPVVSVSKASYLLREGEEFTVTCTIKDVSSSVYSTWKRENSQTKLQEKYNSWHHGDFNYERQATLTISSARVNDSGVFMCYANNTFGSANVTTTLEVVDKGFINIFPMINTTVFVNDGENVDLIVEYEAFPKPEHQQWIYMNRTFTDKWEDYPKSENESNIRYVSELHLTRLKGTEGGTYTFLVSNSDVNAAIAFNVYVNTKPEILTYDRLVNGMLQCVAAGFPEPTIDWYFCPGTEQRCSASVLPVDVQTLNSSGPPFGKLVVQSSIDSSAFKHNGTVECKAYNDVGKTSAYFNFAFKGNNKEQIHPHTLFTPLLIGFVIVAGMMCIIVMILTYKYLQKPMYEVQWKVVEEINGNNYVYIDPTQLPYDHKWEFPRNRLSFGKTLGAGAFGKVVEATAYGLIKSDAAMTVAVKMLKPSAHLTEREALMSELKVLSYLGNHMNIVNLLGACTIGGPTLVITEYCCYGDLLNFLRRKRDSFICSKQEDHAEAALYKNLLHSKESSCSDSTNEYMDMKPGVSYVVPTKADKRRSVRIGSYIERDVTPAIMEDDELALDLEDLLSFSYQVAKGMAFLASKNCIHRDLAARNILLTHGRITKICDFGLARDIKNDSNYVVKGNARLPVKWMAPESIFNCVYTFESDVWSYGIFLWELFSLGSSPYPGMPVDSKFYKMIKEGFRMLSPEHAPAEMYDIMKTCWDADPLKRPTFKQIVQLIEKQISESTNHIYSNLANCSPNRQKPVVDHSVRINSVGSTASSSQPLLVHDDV

Row | pIC50 [2] | also measured | SMILES
1 | – | pIC50 [1]: 7.19 | Cc1ccc(-c2noc(CC3CCCO3)n2)cc1NC(=O)c1cnc2ccccn12 (centres unmarked) [F18]
2 | 5.98 | – | Cc1ccc(-c2noc(CNC(=O)CC3CCOCC3)n2)cc1NC(=O)c1cnc2ccccn12 [F270]
3 | – | pIC50 [1]: 7.38 | Cc1ccc(-c2noc(C3CCCCO3)n2)cc1NC(=O)c1cnc2ccccn12 (centres unmarked) [F8]
4 | 6.00 | – | CC(C)(C)OC(=O)N1CC(c2nc(-c3ccc(F)c(NC(=O)c4cnc5ccccn45)c3)no2)C1 [F153]
5 | 5.72 | – | Cc1ccc(-c2noc(CC3CCNCC3)n2)cc1NC(=O)c1cnc2ccccn12 [F289]
6 | – | pIC50 [1]: 7.27 | CCCCS(=O)(=O)N1CC(c2nc(-c3ccc(C)c(NC(=O)c4cnc5ccccn45)c3)no2)C1 [F31]
7 | 6.14 | – | Cc1ccc(-c2noc(C3CN(C(=O)OCCO)C3)n2)cc1NC(=O)c1cnc2ccccn12 [F150]
8 | – | pIC50 [1]: 7.03 | CCOC(=O)N1CC(c2nc(-c3ccc(C)c(NC(=O)c4cnc5ccccn45)c3)no2)C1 [F53]
9 | – | pIC50 [1]: 7.34 | Cc1ccc(-c2noc([C@@H]3CCN3S(C)(=O)=O)n2)cc1NC(=O)c1cnc2ccccn12 [F25]
10 | 5.72 | – | Cc1ccc(-c2noc(CN3CC(S(C)(=O)=O)C3)n2)cc1NC(=O)c1cnc2ccccn12 [F291]
11 | 6.67 | – | COCc1n[nH]c(-c2ccc3ncc(C(=O)Nc4cc(-c5noc(C6CN(C(=O)OC)C6)n5)ccc4C)n3c2)n1 [F253]
12 | – | pIC50 [1]: 7.14 | Cc1ccc(-c2noc(CN3CCOCC3)n2)cc1NC(=O)c1cnc2ccccn12 [F22, N-(2-methyl-5-(5-(morpholinomethyl)-1,2,4-oxadiazol-3-yl)phenyl)imidazo[1,2-a]pyridine-3-carboxamide]
13 | – | pIC50 [1]: 7.02 | Cc1ccc(-c2noc(CCCN3CCOCC3)n2)cc1NC(=O)c1cnc2ccccn12 [F20]
14 | 6.34 | – | Cc1ccc(-c2noc(C[C@H]3CCN(C(=O)OC(C)(C)C)C3)n2)cc1NC(=O)c1cnc2ccccn12 [F185]
15 | – | pIC50 [1]: 7.29 | [2H]c1c([2H])c([2H])n2c(C(=O)Nc3cc(-c4noc(C5CN(C(=O)OC)C5)n4)ccc3C)cnc2c1[2H] [F76, methyl 3-(3-(4-methyl-3-(5,6,7,8-(D4)imidazo[1,2-a]pyridine-3-carboxamido)phenyl)-1,2,4-oxadiazol-5-yl)azetidine-1-carboxylate]
16 | – | pIC50 [1]: 7.02 | Cc1ccc(-c2noc(C3CCN(S(C)(=O)=O)CC3)n2)cc1NC(=O)c1cnc2ccccn12 [F34]
17 | 6.51 | – | Cc1ccc(-c2noc([C@@H]3CC(F)(F)CN3C(=O)OC(C)(C)C)n2)cc1NC(=O)c1cnc2ccccn12 [F120]
18 | – | pIC50 [1]: 7.89 | COC(=O)N1CC(c2nc(-c3ccc(C)c(NC(=O)c4cnc5cc(-c6cc[nH]n6)ccn45)c3)no2)C1 [F68, methyl 3-(3-(3-(7-(1H-pyrazol-3-yl)imidazo[1,2-a]pyridine-3-carboxamido)-4-methylphenyl)-1,2,4-oxadiazol-5-yl)azetidine-1-carboxylate]
19 | – | pIC50 [1]: 6.88 | Cc1ccc(-c2noc(N3CCC3)n2)cc1NC(=O)c1cnc2ccccn12 [F77, N-(5-(5-(azetidin-1-yl)-1,2,4-oxadiazol-3-yl)-2-methylphenyl)imidazo[1,2-a]pyridine-3-carboxamide]
20 | 6.25 | – | CC(=O)N1CCOC(c2nc(-c3ccc(C)c(NC(=O)c4cnc5ccccn45)c3)no2)C1 (centres unmarked) [F195]
21 | 6.48 | – | COC(=O)N1CC(c2noc(-c3ccc(C)c(NC(=O)c4cnc5ccccn45)c3)n2)C1 [F101]
22 | – | pIC50 [1]: 7.44 | COC(=O)N1CC(c2nc(-c3ccc(C)c(NC(=O)c4cnc5ccc(C)cn45)c3)no2)C1 [F62, methyl 3-(3-(4-methyl-3-(6-methylimidazo[1,2-a]pyridine-3-carboxamido)phenyl)-1,2,4-oxadiazol-5-yl)azetidine-1-carboxylate]
23 | 6.13 | – | CC(=O)N1CC[C@H]1c1nc(-c2ccc(C)c(NC(=O)c3cnc4ccccn34)c2)no1 [F152]
24 | 5.77 | – | Cc1ccc(-c2noc([C@@H]3C[C@H](O)CN3S(C)(=O)=O)n2)cc1NC(=O)c1cnc2ccc(F)cn12 [F287]
25 | 6.94 | – | COC(=O)N1CC(c2nc(-c3ccc(C)c(NC(=O)c4cnc5cc(N6CCOC6=O)ccn45)c3)no2)C1 [F250]

Row | pIC50 [2] | also measured | SMILES
26 | 6.85 | – | COC(=O)N1CCC(Cc2nc(-c3ccc(C)c(NC(=O)c4cnc5ccccn45)c3)no2)CC1 [F214]
27 | 6.70 | – | Cc1ccc(-c2nc(CCOC3CCN(Cc4ccccc4)CC3)no2)cc1NC(=O)c1cnc2ccccn12 [F100]
28 | 6.86 | – | Cc1ccc(-c2noc(C3(NC(=O)OC(C)(C)C)COC3)n2)cc1NC(=O)c1cnc2ccccn12 [F139]
29 | 6.12 | – | Cc1ccc(-c2noc(C3CN(C(=O)OCCCN4CCOCC4)C3)n2)cc1NC(=O)c1cnc2ccccn12 [F135]
30 | 5.66 | – | Cc1ccc(-c2nc(N3CC4(COC4)C3)no2)cc1NC(=O)c1cnc2ccccn12 [F294]
31 | 6.54 | – | Cc1ccc(-c2noc([C@@H]3CCCN(C(=O)OC(C)(C)C)C3)n2)cc1NC(=O)c1cnc2ccccn12 [F186]
32 | 6.94 | – | COC(=O)N1CC(c2nc(-c3ccc(C)c(NC(=O)c4cnc5ccc(CCC(=O)OC(C)(C)C)cn45)c3)no2)C1 [F241]
33 | 6.99 | – | COC(=O)N1CC(c2nc(-c3ccc(C)c(NC(=O)c4cnc5ccc(C#N)cn45)c3)no2)C1 [F236]
34 | – | pIC50 [1]: 7.26 | Cc1ccc(-c2noc([C@@H]3CC(F)(F)CN3S(C)(=O)=O)n2)cc1NC(=O)c1cnc2ccccn12 [F32]
35 | 6.48 | – | COC(=O)N1CC(c2nc(-c3ccc(C)c(NC(=O)c4cnc5ccc(CC(C)(C)O)cn45)c3)no2)C1 [F247]
36 | 6.10 | – | Cc1ccc(-c2noc(COC(=O)NC3CN(C)C3)n2)cc1NC(=O)c1cnc2ccccn12 [F137]
37 | 5.61 | – | Cc1ccc(-c2noc(C3CCNC3)n2)cc1NC(=O)c1cnc2ccccn12 (centres unmarked) [F296]
38 | 5.78 | – | Cc1ccc(-c2noc(C[C@H]3CCNC3)n2)cc1NC(=O)c1cnc2ccccn12 [F284]
39 | 6.92 | – | Cc1ccc(-c2noc([C@@H](C)N3CCC(F)(F)C3)n2)cc1NC(=O)c1cnc2ccccn12 [F227]
40 | 6.35 | – | COC(=O)N1CC(c2nc(-c3ccc(F)c(NC(=O)c4cnc5ccccn45)c3)no2)C1 [F201]
41 | 6.74 | – | COC(=O)N1CC(c2nc(-c3ccc(C)c(NC(=O)c4cnc5cc(C#N)ccn45)c3)no2)C1 [F235]
42 | 6.98 | – | COC(=O)N1CCOC(c2nc(-c3ccc(C)c(NC(=O)c4cnc5ccccn45)c3)no2)C1 (centres unmarked) [F194]
43 | 6.82 | – | Cc1ccc(-c2noc(CNC(=O)C3(C)COC3)n2)cc1NC(=O)c1cnc2ccccn12 [F148]
44 | – | pIC50 [3]: 5.75 | Cc1ccc(-c2noc(C3CCCCN3C(=O)OC(C)(C)C)n2)cc1NC(=O)c1cnc2ccccn12 (centres unmarked) [F288]
45 | 6.62 | – | COCCCN1CC(c2nc(-c3ccc(C)c(NC(=O)c4cnc5ccccn45)c3)no2)C1 [F225]
46 | 6.03 | – | Cc1ccc(-c2noc(C3CCCN3C(=O)OC(C)(C)C)n2)cc1NC(=O)c1cnc2ccccn12 (centres unmarked) [F106]
47 | 6.04 | – | Cc1ccc(-c2noc(C3CCN(C(=O)OC(C)(C)C)C3)n2)cc1NC(=O)c1cnc2ccccn12 (centres unmarked) [F107]
48 | 6.09 | – | COC(=O)N1CC(c2nc(-c3ccc(C)c(NC(=O)c4cnc5c(F)cccn45)c3)no2)C1 [F242]
49 | – | pIC50 [1]: 7.36 | [2H]c1ccn2c(C(=O)Nc3cc(-c4noc(C5CN(C(=O)OC)C5)n4)ccc3C)cnc2c1 [F97, methyl 3-(3-(3-(7-deuteroimidazo[1,2-a]pyridine-3-carboxamido)-4-methylphenyl)-1,2,4-oxadiazol-5-yl)azetidine-1-carboxylate]
50 | – | pIC50 [3]: 6.64 | Cc1ccc(-c2noc([C@H]3CCCO3)n2)cc1NC(=O)c1cnc2ccccn12 [F103]
